Source: patent US10717712B2, “Pegylated prodrugs of phenolic TRPV1 agonists” (CONCENTRIC ANALGESICS, INC., priority 2018, dated 2020)

Test: Aqueous solubility in DI water (visual inspection)
Assay type: physicochemical
Details: HCl salt, incubated at 50 or 100 mg/mL
Protocol: In order to determine the aqueous solubility of the compounds described herein, the HCl salts of the following compounds were incubated at either 50 or 100 mg/mL in DI water and visually inspected for insoluble material.

## CNCC1CN(C(=O)CCOCCOCCOCCOC)CCN1C(=O)Oc1ccc(CNC(=O)CCCC/C=C/C(C)C)cc1OC (stereo not shown) [Compound 1, (E)-2-methoxy-4-((8-methylnon-6-enamido)methyl)phenyl 2-((methylamino)methyl)-4-(2,5,8,11-tetraoxatetradecan-14-oyl)piperazine-1-carboxylate]
  solubility: > 100 mg/mL
